Measurements taken from patent US10954300B2, “Use of pentoxifylline with immune checkpoint-blockade therapies for the treatment of melanoma” (THE TRUSTEES OF COLUMBIA UNIVERSITY IN THE CITY OF NEW YORK, priority 2015, dated 2021).

Columns and labels:
c-Rel = target: T1, c-Rel (Mus musculus, UniProt P15307); test: Western blot on PTXF-treated Treg cells; type: cell-based, mice; details: Treg cells stimulated with anti-CD3/CD28 and mIL-2, 500 μg/mL PTXF
T1 construct: CD4+GFP+ Treg cells were sorted form Foxp3eGFP spleens; endogenous in cells; host or cells: primary splenic CD4+Foxp3+ Treg cells from reporter mice
Procedure: Total cells suspensions were then activated with 5 μg/mL plate-coated anti-mCD3, 1 μg/ml soluble anti-mCD28 (BioLegend) and 10 ng/mL mIL-2, overnight at 37 C. Treg cells were then washed for further use.
Total lysates were extracted using RIPA buffer and protease inhibitors with SDS. 20 μg (micrograms) protein extracts were ran in polyacrylamide gels and transferred onto PVDF membranes. Membranes were incubated with anti-p65, c-Rel (Santa-Cruz) and GAPDH (Fitzgerald) Abs, followed HRP-coupled secondary Abs.

Treg cells [1] = test: Flow cytometry of PTXF-treated Treg cells; type: cell-based, mice; details: 16 h stimulation, 500 μg/mL PTXF
Procedure: Cells were isolated from thymus, spleen and lymph nodes by mechanical desegregation in PBS+ FBS 3%. For tumor-infiltrating cell suspensions, total tumors were digested in DMEM (Gibco) supplemented with 1 mg/ml collagenase type IV (Sigma) and 1 mg/ml DNase I (Sigma) for 40 minutes at 37° C., followed by centrifugation in a 36% Percoll solution. For intracellular cytokines analyses, cell suspensions were incubated 3 hours with PMA (Sigma, 50 ng/mL), ionoymycin (Sigma, 1 μg/mL) in the presence of Golgi Plug (BD), or incubated 4 hours with mitomycin C-treated WT splenocytes loaded with […] gp100/pmel 17 peptide (Neo Biolab) in the presence of Golgi Plug. Cells were then stained with mAbs purchased by eBioscience or Tonbo Bioscience. Foxp3 and cytokine staining were performed using the eBioscience kit and protocol. Cells were acquired on a LSR II (BD Biosciences) and analyzed with FlowJo (Tree Star) software. […] Total cells suspensions were then activated with 5 μg/mL plate-coated anti-mCD3, 1 μg/ml soluble anti-mCD28 (BioLegend) and 10 ng/mL mIL-2, overnight at 37 C. Treg cells were then washed for further use.

Treg cells [2] = test: In vivo suppression (colitis) assay with PTXF-treated Treg cells; parameters: species or system RAG1−/− mice; details: Treg transferred with naïve Tconv cells
Procedure: Total cells suspensions were then activated with 5 μg/mL plate-coated anti-mCD3, 1 μg/ml soluble anti-mCD28 (BioLegend) and 10 ng/mL mIL-2, overnight at 37 C. Treg cells were then washed for further use. For in vitro assays, CD45.1^+ naïve conventional CD4+ T cells were magnetically isolated (Miltenyi) and labelled with CellTrace Violet Proliferation Tracker (Life Technologies). They were cultured with T-cell depleted, mitomycin C-treated WT splenocytes and 2.5 μg/mL anti-mCD3, in the presence or not of treated Treg cells as described above. Proliferation of CD45.1^+ T cells was assessed by FACS at D4. The % of suppression was calculated as described. For in vivo assays, 4.10^5 naïve Tconv cells were isolated as above and transferred with or without 1.10^5 Treg cells, to the retro-orbital sinus of 6-9 week-old RAG1^−/− mice. Recipients were then weighed every week and euthanized when weight loss was >30%.

B16F1 melanoma cells [3] = test: Flow cytometry of tumor infiltrates (TILs) at D16, early PTXF treatment; type: in vivo, C57Bl/6J mice
Procedure: Cells were isolated from thymus, spleen and lymph nodes by mechanical desegregation in PBS+ FBS 3%. For tumor-infiltrating cell suspensions, total tumors were digested in DMEM (Gibco) supplemented with 1 mg/ml collagenase type IV (Sigma) and 1 mg/ml DNase I (Sigma) for 40 minutes at 37° C., followed by centrifugation in a 36% Percoll solution. For intracellular cytokines analyses, cell suspensions were incubated 3 hours with PMA (Sigma, 50 ng/mL), ionoymycin (Sigma, 1 μg/mL) in the presence of Golgi Plug (BD), or incubated 4 hours with mitomycin C-treated WT splenocytes loaded with 10 mg/mL gp100/pmel 17 peptide (Neo Biolab) in the presence of Golgi Plug. Cells were then stained with mAbs purchased by eBioscience or Tonbo Bioscience. Foxp3 and cytokine staining were performed using the eBioscience kit and protocol. Cells were acquired on a LSR II (BD Biosciences) and analyzed with FlowJo (Tree Star) software.

B16F1 melanoma cells [4] = test: qPCR on total tumor RNA at D16, early PTXF treatment; type: in vivo, C57Bl/6J mice
From the text: Total RNA was extracted using a Qiagen Rneasy Mini Kit with DNase treatment. For qPCR, RNA was reverse transcribed by Superscript III (Invitrogen). cDNAs were used for PCR with SYBR Green reagents (Quanta Biosciences, Gaithersburg, Md.) on a C1000 Touch thermal cycler (Bio Rad, Hercules, Calif.). The data was normalized to GAPDH expression.

B16F10 cells = test: B16F10 metastatic melanoma, lung foci; type: in vivo, C57Bl/6J mice; details: B16F10 i.v.; early PTXF treatment
Procedure: 5×10^4 B16F1 or 5×10^5 CT-26 or BRAF^[…]^-/- cells diluted in sterile PBS1X were injected subcutaneously into the shaved flank of each mouse. For metastasis experiments, 2.5×10^4 B16F10 cells were injected intravenously in the tail vein. […] Anti-PD-1 (RMP1-14), anti-PD-L1 (10F.9G2) and anti-CD8 (YTS.169-4) mAbs were obtained from BioXCell. Rat IgG isotype control was from R&D Systems.

T1 sequence (P15307 whole entry): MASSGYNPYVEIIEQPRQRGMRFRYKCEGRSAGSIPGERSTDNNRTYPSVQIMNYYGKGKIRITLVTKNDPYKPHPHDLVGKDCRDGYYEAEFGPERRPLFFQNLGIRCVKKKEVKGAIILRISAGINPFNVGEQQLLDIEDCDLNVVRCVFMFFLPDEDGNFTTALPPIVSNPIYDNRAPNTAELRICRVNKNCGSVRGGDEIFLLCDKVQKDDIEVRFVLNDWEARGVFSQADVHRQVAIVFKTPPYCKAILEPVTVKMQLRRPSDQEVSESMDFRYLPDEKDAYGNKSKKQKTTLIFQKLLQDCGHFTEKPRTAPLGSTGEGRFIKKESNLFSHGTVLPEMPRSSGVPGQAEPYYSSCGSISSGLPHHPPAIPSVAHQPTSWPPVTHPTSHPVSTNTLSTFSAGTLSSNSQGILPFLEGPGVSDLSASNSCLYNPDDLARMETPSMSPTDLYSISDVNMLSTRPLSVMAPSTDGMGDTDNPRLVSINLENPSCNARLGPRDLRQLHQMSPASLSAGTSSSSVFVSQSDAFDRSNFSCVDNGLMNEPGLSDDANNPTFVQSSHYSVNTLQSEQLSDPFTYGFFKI

- c-Rel protein (c-Rel): significant reduction of c-Rel protein
Structure (SMILES): CC(=O)CCCCn1c(=O)c2c(ncn2C)n(C)c1=O [PTXF, 1-(5-oxohexyl)-3,7-dimethylxanthine]
- expression of Treg markers such as Foxp3, CD25 and Helios (Treg cells [1]): significantly decreased expression
- prevention of colitis by PTXF-treated Treg (Treg cells [2]): completely failed to prevent colitis
- CD44 and Ki67 expression on CD4+ Tconv TILs (B16F1 melanoma cells [3]): increased
- infiltration of total T cells and IFN-γ-producing CD4 and CD8 T-cells into the tumors (B16F1 melanoma cells [3]): increase in infiltration
- proportion of Treg cells in tumor infiltrates (B16F1 melanoma cells [3]): decrease in the proportion of Treg cells
- inflammatory response (activated T-cell markers and cytokines) in total tumors (B16F1 melanoma cells [4]): dramatic enhancement of the inflammatory response
- increase of Ccl22 mRNA (B16F1 melanoma cells [4]; minor and non-significant): 1.2 ×
- total number of metastatic foci in lungs (B16F10 cells): significantly decreased
